One compound from publication PMC9821961, “Ring-Modified Histidine-Containing Cationic Short Peptides Exhibit Anticryptococcal Activity by Cellular Disruption” (Molecules, 2022) can be followed below.

For one experiment, the system named is C. neoformans. Description: microbe, parasite or virus in culture. Type of experiment: cell-based, Cryptococcus neoformans. Conditions: Cryptococcus neoformans, C. neoformans. The gist of the method: (§1)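 Growth inhibition was measured by broth microdilution. MIC and IC50 were calculated from optical density at 600 nm after 48 h at 30 °C for Candida and Cryptococcus (10^3 CFU/mL, RPMI 1640 or YPED) and after 24 h at 37 °C for the Gram-positive bacteria (10^5 CFU/mL, Mueller Hinton).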

A further experiment concerns C. albicans. Description: microbe, parasite or virus in culture. Type of experiment: cell-based, Candida albicans. The note with it: Candida albicans, C. albicans. In outline:
as §1

A further experiment has as its system C. glabrata. Briefly: microbe, parasite or virus in culture. The note with it: Nakaseomyces glabratus, C. glabrata. Type of experiment: cell-based, Candida glabrata. In outline: as §1
The test system of another experiment is C. parapsilosis. Description: microbe, parasite or virus in culture. Type of experiment: cell-based, Candida parapsilosis. The note with it: Lodderomyces parapsilosis, C. parapsilosis. The gist of the method:
as §1

A further experiment has as its system C. krusei. Description: microbe, parasite or virus in culture. The experiment is classed as cell-based, Candida krusei. Conditions: Pichia kudriavzevii, C. krusei. The gist of the method: as §1
The subject of experiment [1] is Cryptococcal cells.
In the next experiment the test system is C. neoformans cells. Description: Time kill assay. Conditions: time-kill profile over 24 h.
In experiment [2] the test system is Cryptococcal cells. Briefly: microbe, parasite or virus in culture. Conditions: Cryptococcus neoformans, read-out: MIC Alone.

≈ marks a conversion by molar mass, not a printed value. Where two headings read alike, the source gives them in different places.

For orientation: IC50 means the concentration that inhibits the measured activity by half. As to `C[C@@H]1[C@H](O)[C@@H](C)/C=C/C=C/C=C/C=C/C=C/C=C/C=C/[C@H](O[C@@H]2O[C@H](C)[C@@H](O)[C@H](N)[C@@H]2O)C[C@@H]2O[C@](O)(C[C@@H](O)C[C@@H](O)[C@H](O)CC[C@@H](O)C[C@@H](O)CC(=O)O[C@H]1C)C[C@H](O)[C@H]2C(=O)O` [Amphotericin B, reference compound], the IC50 in the experiment with C. neoformans (concentration that leads to ~50% inhibition of growth, read-out: IC50) worked out at 0.5 µg/mL (≈ 0.541 µM); with C. albicans (read-out: IC50), 0.36 µg/mL (≈ 0.39 µM); with C. glabrata (read-out: IC50), 0.18 µg/mL (≈ 0.195 µM); in the experiment on C. parapsilosis (read-out: IC50), 0.36 µg/mL (≈ 0.39 µM); in the experiment on C. krusei (read-out: IC50), 0.36 µg/mL (≈ 0.39 µM). Besides, the MIC turned out to be 1 µg/mL (≈ 1.08 µM) in the experiment with C. neoformans (lowest test concentration with no detectable growth, read-out: MIC); 0.72 µg/mL (≈ 0.779 µM) in the experiment on C. albicans (read-out: MIC); 0.36 µg/mL (≈ 0.39 µM) in the experiment with C. glabrata (read-out: MIC); 0.72 µg/mL (≈ 0.779 µM) with C. parapsilosis (read-out: MIC); 0.72 µg/mL (≈ 0.779 µM) in the experiment with C. krusei (read-out: MIC); 1 µg/mL (≈ 1.08 µM) in the experiment on Cryptococcal cells [2]. In addition, the Effect result in the experiment on Cryptococcal cells [1] (combination 10o + Amp B) and in the experiment with Cryptococcal cells [1] (combination 10d + Amp B) was “Synergistic” throughout. Besides, the FICI turned out to be 0.31 in the experiment with Cryptococcal cells [1] (combination 10o + Amp B) and 0.18 with Cryptococcal cells [1] (combination 10d + Amp B). The “Fold Decrease in MIC” value was determined as 4 in the experiment with Cryptococcal cells [1] (combination 10o + Amp B) and 8 in the experiment with Cryptococcal cells [1] (combination 10d + Amp B). Further, the figures for the “MIC In Combination” value in the experiment with Cryptococcal cells [1] (combination 10o + Amp B) and in the experiment with Cryptococcal cells [1] (combination 10d + Amp B) were 0.250 µg/mL and 0.125 µg/mL, respectively. Also, the “Time after which growth/CFUs of cryptococcal cells dropped or were inhibited” value in the experiment with C. neoformans cells is 4 h.
